# Molecular target: T1, human VR1 (Homo sapiens, UniProt Q8NER1)
# T1 construct: expressed in transfected cells
# Assay: Inhibition of Ca2+ entry in cells caused by proton, in rat glioma (C6BU1) cells stably expressing human VR1 (Fura 2 fluorescence)
# Assay type: cell-based
# Details: inhibition of proton-induced Ca2+ entry
# Experimental: The assay for evaluation of VR1 inhibition by the inventive compounds will be described below. The assay was intended to evaluate in vitro inhibition of Ca^2+ entry in cells caused by proton, one of the VR1 agonists.
# Rat glioma (C6BU1) cells stably expressing human VR1 were suspended in 20 mM MES buffer (at pH 6.8, contg. 20 mM 2-morpholinoethanesulfonate (referred to as MES hereinafter), 115 mM NaCl, 5 mM KCl, 1 mM MgCl2 and 14 mM D-glucose) to make a cell density of 1×10^6 cells/mL. A fluorescent dye, Fura 2-AMsolution (DojindoCorporate, Cat. No. 343-05401) was added to the suspension to make a 5 μM concentration thereof. Further, Pluronic F-127 (Wako Pure Chemical Industries, Ltd., Cat. No. P6866) was added to make a 0.1% content thereof. Then, the suspension was incubated at 37° C. for 30 min. The cells were harvested and washed three times with 20 mM MES buffer. The cells were suspended again to make a cell density of 5×10^5 cells/mL. A 500-μL portion of the suspension was taken with a cuvette (MC MEDICAL, INC., Cat. No. SSR3121), to which 10 μL of 20 mM MES buffer containing 250 mM CaCl2 was added to incorporate Ca^2+ into the cells. At the same time, 5 μL of a test compound solution (in a range of 100 μM to 10 nM in DMSO) was also added to provide a final concentration thereof in a range of 1 μM to 0.1 nM. Alternatively, 5 μL of DMSO was added as control to provide a final concentration of 1% DMSO. The suspension was set in an intracellular ionometer (CAF-110; JASCO) 10 min after those additions. The cells were stimulated with protons by addition of 60 μL of 20 mM MES buffer at pH 1.1 to the suspension to set its pH at 5.5. The activity of the test compound was determined as a difference between the minimum of fluorescence intensity before agonist stimulation and its maximum after the stimulation. The value of IC50 was derived from percentage of inhibition by the test compound compared with the control.
# In the tables, the symbol “++” indicates an IC50 value less than 100 nM and the symbol “+” indicates an IC50 value of 100 nM to 1,000 nM inclusive.
# T1 sequence (Q8NER1 whole entry): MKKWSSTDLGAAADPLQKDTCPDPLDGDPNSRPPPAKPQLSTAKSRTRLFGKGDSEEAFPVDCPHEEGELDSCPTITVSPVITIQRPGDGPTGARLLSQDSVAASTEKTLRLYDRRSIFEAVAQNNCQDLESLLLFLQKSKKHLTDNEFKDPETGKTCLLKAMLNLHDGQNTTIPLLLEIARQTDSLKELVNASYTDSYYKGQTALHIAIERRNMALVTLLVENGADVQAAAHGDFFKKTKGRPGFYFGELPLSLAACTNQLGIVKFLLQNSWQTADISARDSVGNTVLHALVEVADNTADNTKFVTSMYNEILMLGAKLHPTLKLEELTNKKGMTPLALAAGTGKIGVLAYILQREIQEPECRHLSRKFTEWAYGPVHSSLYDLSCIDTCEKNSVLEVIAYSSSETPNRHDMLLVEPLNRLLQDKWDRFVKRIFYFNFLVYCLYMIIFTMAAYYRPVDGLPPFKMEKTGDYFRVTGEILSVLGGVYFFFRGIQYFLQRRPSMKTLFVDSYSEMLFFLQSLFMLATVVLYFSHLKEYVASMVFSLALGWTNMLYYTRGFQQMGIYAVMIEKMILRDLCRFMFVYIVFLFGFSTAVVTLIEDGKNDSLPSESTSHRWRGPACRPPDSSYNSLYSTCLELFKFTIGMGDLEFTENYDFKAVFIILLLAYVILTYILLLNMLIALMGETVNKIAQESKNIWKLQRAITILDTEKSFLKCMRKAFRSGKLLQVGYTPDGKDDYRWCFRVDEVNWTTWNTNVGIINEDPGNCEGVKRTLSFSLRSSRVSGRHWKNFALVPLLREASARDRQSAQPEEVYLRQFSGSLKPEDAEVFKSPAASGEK
row,SMILES,IC50
1,O=C(Nc1ccc(C(F)(F)F)cc1)c1cccc2c1OCCN2c1ccc(O)cn1 [Example 1-146],< 100 nM
2,"Cc1cnc(N2c3cccc(C(=O)Nc4ccc(C(F)(F)F)cc4)c3OC[C@@H]2CO)s1 [Example 6-2, (S)-3-hydroxymethyl-4-(5-methylthiazol-2-yl)-N-(4-trifluoromethylphenyl)-3,4-dihydro-2H-benzo[1,4]oxazine-8-carboxamide]",< 100 nM
3,O=C(Nc1cc(Cl)cc(Cl)c1)c1cccc2c1OCCN2c1ncc(CO)cc1Cl [Example 2-43],< 100 nM
4,O=C(N[C@H]1CC[C@H](OC2CCCC2)CC1)c1cccc2c1OCCN2c1ncccc1Cl [Example 1-098],100 to 1000 nM
5,COCCN(c1ccc(NC(=O)c2cccc3c2OCCN3c2ccc(C)cn2)cc1F)C(C)C [Example 1-164],< 100 nM
6,O=C(Nc1ccc(Br)c(F)c1)c1cccc2c1OCCN2c1ncc(CO)cc1Cl [Example 2-41],< 100 nM
7,O=C(Nc1ccc(C(F)(F)F)nc1)c1cccc2c1OCCN2c1ncccc1Cl [Example 1-030],< 100 nM
8,CC(C)COc1ccc(NC(=O)c2cccc3c2OCCN3c2ncc(CO)cc2Cl)cc1 [Example 2-39],< 100 nM
9,COCC1CCCCN1c1ccc(NC(=O)c2cccc3c2OCCN3c2ccc(C)cn2)cc1F (stereo not shown) [Example 1-090],< 100 nM
10,COCc1cnc(N2CCOc3c(C(=O)Nc4ccc(OC(F)(F)F)cc4)cccc32)c(Cl)c1 [Example 1-220],< 100 nM
11,Cc1ccc(N2c3cccc(C(=O)Nc4ccc(OCC(C)C)c(F)c4)c3OC[C@@H]2CO)nc1 [Example 4-54],< 100 nM
12,Cc1ccc(N2CCOc3c(C(=O)Nc4ccc(OC5CCN(C(=O)OC(C)(C)C)CC5)c(F)c4)cccc32)nc1 [Example 1-174],< 100 nM
13,CNC(=O)[C@H]1COc2c(C(=O)Nc3ccc(C(F)(F)F)cc3)cccc2N1c1ncccc1Cl [Example 1-234],< 100 nM
14,O=C(Nc1ccc(N2CCCCC2)c(F)c1)c1cccc2c1OC[C@H](CO)N2c1ncccc1Cl [Example 4-10],< 100 nM
15,N#Cc1ccc(N2CCOc3c(C(=O)Nc4ccc(OC(F)(F)F)cc4)cccc32)nc1 [Example 1-218],100 to 1000 nM
16,"O=C(Nc1ccc(C(F)(F)F)c(F)c1)c1cccc2c1OCCN2c1ncc(CO)cc1Cl [Example 2-06, N-(3-fluoro-4-trifluoromethylphenyl)-4-(3-chloro-5-hydroxymethylpyridin-2-yl)-3,4-dihydro-2H-benzo[1,4]oxazine-8-carboxamide]",< 100 nM
17,O=C(Nc1ccc(C(F)(F)F)nc1)c1cccc2c1OCCN2c1ncc(CO)cc1Cl [Example 2-16],< 100 nM
18,CC(C)(C)c1ccc(NC(=O)c2cccc3c2OCCN3c2cc(Cl)ccn2)cc1 [Example 1-148],< 100 nM
19,CN(C)c1ccc(NC(=O)c2cccc3c2OCCN3c2ncccc2Cl)cc1 [Example 1-049],100 to 1000 nM
20,COc1ccc(N2CCOc3c(C(=O)Nc4ccc(C(F)(F)F)cc4)cccc32)nc1 [Example 1-147],< 100 nM

row,SMILES,IC50
1,Cc1ccc(N2CCOc3c(C(=O)N[C@H]4CC[C@H](OCc5ccccc5)CC4)cccc32)nc1 [Example 1-190],100 to 1000 nM
2,O=C(Nc1ccc(OC(F)F)cc1)c1cccc2c1OCCN2c1ncc(CO)cc1Cl [Example 2-44],< 100 nM
3,COC1CCN(c2ccc(NC(=O)c3cccc4c3OCCN4c3ccc(Cl)cn3)cc2F)CC1 [Example 1-122],< 100 nM
4,CC(C)(C)c1ccc(NC(=O)c2cccc3c2OCCN3c2ccccn2)cc1 [Example 1-016],< 100 nM
5,CCOc1ccc(NC(=O)c2cccc3c2OCCN3c2ccc(Cl)cn2)cc1 [Example 1-120],< 100 nM
6,O=C(Nc1ccc(Cl)cc1)c1cccc2c1OC[C@H](CO)N2c1ccc(Cl)cc1 [Example 7-11],< 100 nM
7,O=C(Nc1ccc(Br)c(C(F)(F)F)c1)c1cccc2c1OCCN2c1ncc(CO)cc1Cl [Example 2-23],< 100 nM
8,"COC(=O)c1ccc(NC(=O)c2cccc3c2OCCN3c2ncccc2Cl)cc1 [Example 1-034, 4-(3-chloropyridin-2-yl)-N-(methoxycarbonylphenyl)-3,4-dihydro-2H-benzo[1,4]oxazine-8-carboxamide]",< 100 nM
9,Cc1ccc(N2CCOc3c(C(=O)Nc4ccc(OCC(C)C)c(C(N)=O)c4)cccc32)nc1 [Example 1-075],100 to 1000 nM
10,O=C(Nc1ccc(N2CCCCC2)c(C(F)(F)F)c1)c1cccc2c1OC[C@H](CO)N2c1ncccc1Cl [Example 4-22],< 100 nM
11,Cc1ccc(N2CCOc3c(C(=O)Nc4ccc(Cl)cc4)cccc32)nc1 [Example 1-091],< 100 nM
12,Cc1cccnc1N1c2cccc(C(=O)Nc3ccc(OC(C)(C)C)c(F)c3)c2OC[C@@H]1CO [Example 4-43],< 100 nM
13,"Cc1cnc(N2CCOc3c(C(=O)Nc4ccc(OC(F)(F)F)cc4)cccc32)s1 [Example 5-6, 4-(5-methylthiazol-2-yl)-N-(4-trifluoromethoxyphenyl)-3,4-dihydro-2H-benzo[1,4]oxazine-8-carboxamide]",< 100 nM
14,COC(=O)c1cc(NC(=O)c2cccc3c2OCCN3c2ccc(C)cn2)ccc1OCC(C)C [Example 1-073],< 100 nM
15,Cc1ccc(N2CCOc3c(C(=O)Nc4ccc(C(C)(C)C)cc4)cccc32)nc1 [Example 1-060],< 100 nM
16,Cc1ccc(N2CCOc3c(C(=O)NN4CCC(C(C)(C)C)CC4)cccc32)nc1 [Example 1-152],100 to 1000 nM
17,O=C(Nc1ccc(C(F)(F)F)c(F)c1)c1cccc2c1OC[C@H](CO)N2c1ccccc1Cl [Example 7-06],< 100 nM
18,COCCOc1cc(NC(=O)c2cccc3c2OCCN3c2ccc(C)cn2)ccc1C [Example 1-089],< 100 nM
19,COC1CCN(c2ccc(NC(=O)c3cccc4c3OCCN4c3ccc(C)cn3)cc2F)C1 (stereo not shown) [Example 1-072],< 100 nM
20,CCOc1ccc(N2CCOc3c(C(=O)Nc4ccc(C(F)(F)F)cc4)cccc32)nc1 [Example 1-144],< 100 nM

row,SMILES,IC50
1,CC(=O)OC1CCN(c2ccc(NC(=O)c3cccc4c3OCCN4c3ccc(C)cn3)cc2F)CC1 [Example 1-170],100 to 1000 nM
2,"Cc1cnc(N2c3cccc(C(=O)Nc4ccc(OC(F)(F)F)cc4)c3OC[C@@H]2CO)o1 [Example 6-11, (S)-3-hydroxymethyl-4-(5-methyloxazol-2-yl)-N-(4-trifluoromethoxyphenyl)-3,4-dihydro-2H-benzo[1,4]oxazine-8-carboxamide]",< 100 nM
3,"CC1COc2c(C(=O)Nc3ccc(C(C)(C)C)cc3)cccc2N1c1ncccc1Cl (stereo not shown) [Example 1-003, N-(4-tert-butylphenyl)-4-(3-chloropyridin-2-yl)-3-methyl-3,4-dihydro-2H-benzo[1,4]oxazine-8-carboxamide]",< 100 nM
4,CCOc1ccc(NC(=O)c2cccc3c2OC[C@H](CO)N3c2ncccc2Cl)cc1F [Example 4-23],< 100 nM
5,CCOc1ccc(NC(=O)c2cccc3c2OCCN3c2ccc(C)cn2)cc1F [Example 1-086],< 100 nM
6,O=C(Nc1ccc(N2CCOCC2)cc1)c1cccc2c1OCCN2c1ncccc1Cl [Example 1-050],100 to 1000 nM
7,"COc1ccc(N2CCOc3c(C(=O)Nc4ccc(OCC(C)C)cc4)cccc32)cc1 [Example 7-02, N-(4-isobutyloxyphenyl)-4-(4-methoxyphenyl)-3,4-dihydro-2H-benzo[1,4]oxazine-8-carboxamide]",< 100 nM
8,Cc1ccc(N2c3cccc(C(=O)Nc4ccc(OCC(C)C)c(C(F)(F)F)c4)c3OC[C@@H]2CO)nc1 [Example 4-45],< 100 nM
9,O=C(Nc1ccc(C(F)(F)F)cc1)c1cccc2c1OC[C@H](CO)N2c1ccc(Cl)cc1 [Example 7-10],< 100 nM
10,COc1cccnc1N1CCOc2c(C(=O)Nc3ccc(C(C)(C)C)cc3)cccc21 [Example 1-151],< 100 nM
11,O=C(Nc1ccc(C(F)(F)F)cc1)c1cccc2c1OCCN2c1ccc(Cl)cn1 [Example 1-123],< 100 nM
12,O=C(Nc1cc(F)c(F)c(F)c1)c1cccc2c1OCCN2c1ncc(CO)cc1Cl [Example 2-25],< 100 nM
13,O=C(Nc1cnc(Cl)c(Cl)c1)c1cccc2c1OCCN2c1ncc(CO)cc1Cl [Example 2-20],< 100 nM
14,CC(C)(O)c1cnc(N2CCOc3c(C(=O)Nc4ccc(C(F)(F)F)cc4)cccc32)c(Cl)c1 [Example 1-129],< 100 nM
15,O=C(Nc1ccc2cccnc2c1)c1cccc2c1OCCN2c1ncccc1Cl [Example 1-032],100 to 1000 nM
16,CC(=O)c1ccc(NC(=O)c2cccc3c2OCCN3c2ccc(C)cn2)cc1 [Example 1-078],< 100 nM
17,Cc1ccc(N2CCOc3c(C(=O)N[C@H]4CC[C@H](OCC(C)C)CC4)cccc32)nc1 [Example 1-187],< 100 nM
18,O=C(Nc1ccc2c(c1)OC(F)(F)C(F)(F)O2)c1cccc2c1OCCN2c1ncc(CO)cc1Cl [Example 2-38],< 100 nM

# Reference: patent publication US8008292B2, “Condensed benzamide compounds and inhibitors of vanilloid receptor subtype 1 (VR1) activity” (Japan Tobacco Inc., priority 2004, dated 2011)
